Reference: patent US20050158277A1 (priority 2001, published 2005)

Tested on: S. typhimurium
Format: cell-based
Details: up to 50 mM, 30 min exposure
Description: FIGS. 17 (a-c) Curve of toxicity of benzyl alcohol. Effect of 30 min exposure to increasing concentration (5 to 80 mM) benzyl alcohol (BA) on the growth of S. typhimurium.

## OCc1ccccc1 [BA, benzyl alcohol]
  toxic effect on the growth of Salmonella: no toxic effect
